Measurements published in patent US7872046B2, “Crystalline form of a (3S)-aminomethyl-5-methyl-hexanoic acid prodrug and methods of use” (Xenoport, Inc., priority 2008, dated 2011).

How the values were obtained:
[1] = dosed either orally or directly into the colon of a mammal; cited from earlier work
[2] = Pregabalin pharmacokinetics following administration of oral tablet formulations in monkeys (Example 14); type: in vivo, cynomolgus monkeys
Method: One group of four male cynomolgus monkeys was used for the study. The mean body weight was approximately 2.9 kg at the start of the study and increased over the 9 months of the study to approximately 3.4 kg. The animals were fasted overnight and for the first 4 hours of the study after administration of each test formulation. Water was provided ad libitum.
All formulations were evaluated in a single group of four fasted male cynomolgus monkeys with at least 5 days washout between treatments. The IR tablet formulation was administered at 75 mg-eq pregabalin (1 tablet per animal). Three different SR tablet formulations were dosed orally at either 75 mg-eq. pregabalin or 69 mg-eq. pregabalin (1 tablet each per animal).
Blood samples were obtained from all animals at intervals up to 24 hours post-dosing. Approximately 0.3 mL of blood was collected in pre-chilled K2EDTA tubes containing 0.3 mL of methanol. Within 30 minutes, the blood samples were stored at or below −70° C.
Quenched blood samples were frozen and stored at −20° C. prior to analysis. Samples were analyzed by a sensitive and specific LC-MS/MS method for simultaneous determination of (3S)-{[(1R)-isobutanoyloxyethoxy]carbonylaminomethyl}-5-methyl-hexanoate free acid and pregabalin concentrations.
(§1) Blood concentration data for all analytes were analyzed by non-compartmental methods using WinNonlin (WinNonlin™ Software, version 5.2, Pharsight Corp. Mountain View, Calif.). Non-compartmental analysis was performed on individual profiles in each animal. All concentration values below the limit of quantitation (BLQ) were treated as 0 (zero) for the pharmacokinetic analysis. Low concentration values at predose were treated as BLQ. Nominal sample collection time points were used for the calculation of pharmacokinetic parameters. All concentration data were plotted using SigmaPlot (SigmaPlot™, Version 9.0, Systat Software Inc., Richmond, Calif.).
(§2) The maximum concentration (Cmax) and time to Cmax(Tmax) were obtained by observation. The apparent elimination half-life (T1/2) was obtained by linear regression of three or more log-transformed data points in the terminal phase. The area under the concentration versus time curve (AUClast) was obtained by the linear trapezoidal method using concentration data up to the last quantifiable concentration. The AUC value extrapolated to infinity (AUCinf) was calculated as: AUCinf=AUClast+Clast/λz where tlast is the time of the last quantifiable concentration (Clast) and λz is the rate constant of the apparent terminal elimination phase.
The bioavailability (F) of pregabalin after extravascular dosing of pregabalin or prodrug was calculated by comparison to data following intravenous administration of pregabalin as follows: F(%)=100×(AUCex/Doseex)/(AUCiv/Doseiv) where AUCex is the area under the pregabalin concentration versus time curve in μg×hr/mL following extravascular administration of pregabalin or crystalline calcium (3S)-{[(1R)-isobutanoyloxyethoxy]carbonylaminomethyl}-5-methyl-hexanoate hydrate formulation; Doseex is the extravascular dose expressed in mg-equivalents of pregabalin/kg body weight; AUCiv is the area under the pregabalin concentration versus time curve in μg×hr/mL following intravenous administration of pregabalin; and Doseiv is the intravenous dose expressed in mg-equivalents of pregabalin/kg body weight. […]

[3] = Pregabalin pharmacokinetics following intracolonic administration in monkeys (Example 12); type: in vivo, cynomologus monkeys; settings: 10 mg-eq PG/kg
Method: The pharmacokinetics of pregabalin and crystalline calcium (3S)-{[(1R)-isobutanoyloxyethoxy]carbonylaminomethyl}-5-methyl-hexanoate hydrate following intracolonic administration in monkeys was determined.
A group of four male cynomologus monkeys received an intracolonic dose of pregabalin or crystalline calcium (3S)-{[(1R)-isobutanoyloxyethoxy]carbonylaminomethyl}-5-methyl-hexanoate hydrate (10 mg-eq pregabalin/kg). A 7-day wash-out period was allowed between treatments. Blood samples (300 μL) were collected from all animals prior to dosing and at intervals up to 24 hours post-dosing and immediately quenched in tubes containing K2EDTA to prevent hydrolysis. Two aliquots (100 μL each) were immediately quenched with 300 μL methanol. All quenched blood samples were subsequently analyzed for (3S)-{[(1R)-isobutanoyloxyethoxy]carbonylaminomethyl}-5-methyl-hexanoate free acid and pregabalin using LC-MS/MS.
Pregabalin was obtained from Teva (Peteh Tiqva, Israel). Crystalline calcium (3S)-{[(1R)-isobutanoyloxyethoxy]carbonylaminomethyl}-5-methyl-hexanoate hydrate was synthesized from commercial pregabalin according to Examples 1-6.
Cynomologus monkeys (body weight approximately 2.5 kg to 5.0 kg) were used in the study. Monkeys were fasted overnight and for the first 4 hours after dose administration. Water was provided ad libitum. For intracolonic administration, pregabalin or crystalline calcium (3S)-{[(1R)-isobutanoyloxyethoxy]carbonylaminomethyl}-5-methyl-hexanoate hydrate was suspended in 0.5% methylcellulose/0.1% Tween 80 in sodium phosphate buffer at pH 7.4. Blood samples were analyzed and pharmacokinetic analysis performed as described in Example 14.
as §1, §2
The bioavailability (F) of pregabalin after extravascular dosing of pregabalin or prodrug was calculated by comparison to data following intravenous administration of pregabalin as follows: F(%)=100×(AUCex/Doseex)/(AUCiv/Doseiv) where AUCex is the area under the pregabalin concentration versus time curve in μg×hr/mL following extravascular administration of pregabalin or crystalline calcium (3S)-{[(1R)-isobutanoyloxyethoxy]carbonylaminomethyl}-5-methyl-hexanoate hydrate formulation; Doseex is the extravascular dose expressed in mg-equivalents of pregabalin/kg body weight; AUCiv is the area under the pregabalin concentration versus time curve in μg×hr/mL following intravenous administration of pregabalin; and Doseiv is the intravenous dose expressed in mg-equivalents of pregabalin/kg body weight.

[4] = Hygroscopicity of solid forms; type: physicochemical; settings: solid material
[5] = IR tablet, 75 mg-eq PG (22.4 mg-eq PG/kg)
[6] = SR1 tablet, 75 mg-eq PG (22.3 mg-eq PG/kg)
[7] = SR2 tablet, 69 mg-eq PG (21.1 mg-eq PG/kg)
[8] = SR tablet, 75 mg-eq PG (21.7 mg-eq PG/kg)

For CC(C)C[C@H](CNC(=O)OC(C)OC(=O)C(C)C)CC(=O)O (stereo partly drawn) [(1), (3S)-{[1-Isobutanoyloxyethoxy]carbonylaminomethyl}-5-methyl-hexanoic acid], the bioavailability as pregabalin [1] is given as “high bioavailability”.

For CC(C)C[C@H](CN)CC(=O)O [Pregabalin, (3S)-aminomethyl-5-methyl-hexanoic acid], the “F, bioavailability (based on AUClast) relative to AUCinf of intravenous pregabalin at 8 mg/kg, mean (SD)” value ([2]; LYRICA capsules, 150 mg-eq PG (52.4 mg-eq PG/kg)) was 41 (9) %, the AUC(0-t) ([2]; male, cynomolgus monkey, whole blood, LYRICA capsules, 150 mg-eq PG (52.4 mg-eq PG/kg), read-out: AUClast, pregabalin in blood, mean (SD)) was 188000 ng·h/mL and the Cmax ([2]; male, cynomolgus monkey, whole blood, LYRICA capsules, 150 mg-eq PG (52.4 mg-eq PG/kg), read-out: Cmax, pregabalin in blood, mean (SD)) was 21900 ng/mL. It also gave a Tmax ([2]; male, cynomolgus monkey, whole blood, LYRICA capsules, 150 mg-eq PG (52.4 mg-eq PG/kg), read-out: Tmax, pregabalin in blood, mean (SD)) of 3 h, an AUC(0-inf) ([3]; male, monkey, whole blood, 10 mg/kg, read-out: AUCinf, pregabalin in blood, mean (SD)) of 3100 ng·h/mL and an AUC(0-t) ([3]; male, monkey, whole blood, 10 mg/kg, read-out: AUClast, pregabalin in blood, mean (SD)) of 2200 ng·h/mL. The Cmax ([3]; male, monkey, whole blood, 10 mg/kg, read-out: Cmax, pregabalin in blood, mean (SD)) was 240 ng/mL, the half-life ([3]; male, monkey, whole blood, 10 mg/kg, read-out: T1/2, pregabalin in blood, mean (SD) (converted)) was 6.15 h and the Tmax ([3]; male, monkey, whole blood, 10 mg/kg, read-out: Tmax, pregabalin in blood, mean (SD)) was 0.5 h. The bioavailability ([3]; male, monkey, whole blood, other: intracolonic, 8 mg/kg, read-out: F, bioavailability of pregabalin relative to IV pregabalin at 8 mg/kg, mean (SD)) was 2.7%.

With “calcium (3S)-{[(1R)-isobutanoyloxyethoxy]carbonylaminomethyl}-5-methyl-hexanoate hydrate [(3a)]” the “AUClast, pregabalin in blood, mean (SD)” value [2, 5] was 163 (25) μg × hr/mL, the “Cmax, pregabalin in blood, mean (SD)” value [2, 5] was 19.3 (2.4) μg/mL and the “F, bioavailability (based on AUClast) relative to AUCinf of intravenous pregabalin at 8 mg/kg, mean (SD)” value [2, 5] was 82 (13) %. The “Tmax, pregabalin in blood, mean (SD)” value [2, 5] was 2.0 (1.4) hr, the “AUClast, pregabalin in blood, mean (SD)” value [2, 6] was 104 (16) μg × hr/mL and the “Cmax, pregabalin in blood, mean (SD)” value [2, 6] was 7.2 (1.2) μg/mL. The “F, bioavailability (based on AUClast) relative to AUCinf of intravenous pregabalin at 8 mg/kg, mean (SD)” value [2, 6] was 52 (6) %, the “Tmax, pregabalin in blood, mean (SD)” value [2, 6] was 8.0 (6.9) hr and the “AUClast, pregabalin in blood, mean (SD)” value [2, 7] was 70 (1) μg × hr/mL. For the same molecule, the “Cmax, pregabalin in blood, mean (SD)” value [2, 7] was 5.0 (0.3) μg/mL, the “F, bioavailability (based on AUClast) relative to AUCinf of intravenous pregabalin at 8 mg/kg, mean (SD)” value [2, 7] was 35 (9) % and the “Tmax, pregabalin in blood, mean (SD)” value [2, 7] was 14.0 (3.5) hr. For the same molecule, the “AUClast, pregabalin in blood, mean (SD)” value [2, 8] was 137 (40) μg × hr/mL, the “Cmax, pregabalin in blood, mean (SD)” value [2, 8] was 13.5 (3.2) μg/mL and the “F, bioavailability (based on AUClast) relative to AUCinf of intravenous pregabalin at 8 mg/kg, mean (SD)” value [2, 8] was 70 (16) %. For the same molecule, the “Tmax, pregabalin in blood, mean (SD)” value [2, 8] was 3.2 (1.5) hr, the “AUCinf, pregabalin in blood, mean (SD)” value [3] was 55.9 (12.1) μg × hr/mL and the “AUClast, pregabalin in blood, mean (SD)” value [3] was 54.5 (11.3) μg × hr/mL. For the same molecule, the “Cmax, pregabalin in blood, mean (SD)” value [3] was 7.54 (1.89) μg/mL, the “T1/2, pregabalin in blood, mean (SD)” value [3] was 4.17 (1.15) hr and the “Tmax, pregabalin in blood, mean (SD)” value [3] was 0.88 (0.25) hr. The hygroscopicity [4] was “hygroscopic”.
